In US11072588B2, “Barbituric acid derivatives comprising cationic and lipophilic groups” (UNIVERSITETET I TROMSØ—NORGES ARKTISKE UNIVERSITET, priority 2017, dated 2021):
≈ marks a conversion by molar mass, not a printed value.

Experiments:
Assay in all cases: MIC, multi-resistant clinical isolate
[1] = test system: S. aureus IHT 99040; assay type: cell-based, Staphylococcus aureus
Procedure: (§1) Working solutions of the test derivatives were prepared with up to 100% DMSO and stored at −20° C. If necessary, the solutions were heated to 40-80° C. before testing to facilitate complete dissolution. Double-distilled water was used in all dilutions prepared. […] A microdilution susceptibility test was used for MIC determination according to Clinical and Laboratory Standards Institute, “Methods for Dilution Antimicrobial Sisceptibility Tests for Bacteria That Graw Aerobically”, Approved Standard M07-A9, edition 2012, with modifications as described by Igumnova et al (Bioorg Med Chem, 2016, 24 (22), 5884-5894).
(§2) Briefly, the bacterial inoculum was adjusted to approximately 2.5-3×10^4 cells/mL in Mueller-Hinton broth (MHB, Difco Laboratories, USA), and incubated in a ratio of 1:1 with test derivatives in polystyrene 96-well flat-bottom microplates (NUNC, Roskilde, Denmark). Positive growth control (without test derivatives) and negative control (without bacteria) were included. The reference antibiotic was oxytetracycline hydrochloride (Sigma Aldrich, Saint Louis, Mo., USA). The microplates were incubated in an EnVision microplate reader (Perkin-Elmer, Turku, Finland) placed in an incubator set to 35° C. for 48 h. The MIC value was defined as the lowest concentration of derivative resulting in no bacterial growth as determined by OD600 measurement. All derivatives were tested in three parallels.
(§3) The MIC was determined as explained above with some exceptions; working solutions of test derivatives were prepared from concentrated DMSO stocks stored at room temperature, the density of the bacterial inoculum was increased 40× to 1-1.2×10^6 cells/mL, enterococci were incubated in Brain Heart Infusion broth (BHIB, Difco Laboratories, USA), the microplates were incubated for 24 h, and the derivatives were tested in four parallels.

[2] = test system: S. aureus N315; assay type: cell-based, Staphylococcus aureus
Procedure: as §1, §2, §3

[3] = test system: S. aureus NCTC 10442; assay type: cell-based, Staphylococcus aureus
Procedure: as §1, §2, §3

[4] = test system: S. aureus strain 85/2082; assay type: cell-based, Staphylococcus aureus
Procedure: as §1, §2, §3

[5] = test system: S. aureus strain WIS; assay type: cell-based, Staphylococcus aureus
Procedure: as §1, §2, §3

[6] = test system: E. faecium 50673722; assay type: cell-based, Enterococcus faecium
Procedure: as §1, §2, §3

[7] = test system: E. faecium 50758899; assay type: cell-based, Enterococcus faecium
Procedure: as §1, §2, §3

[8] = test system: E. faecium 50901530; assay type: cell-based, Enterococcus faecium
Procedure: as §1, §2, §3

[9] = test system: E. faecium K36-18; assay type: cell-based, Enterococcus faecium
Procedure: as §1, §2, §3

[10] = test system: E. faecium TUH50-22; assay type: cell-based, Enterococcus faecium
Procedure: as §1, §2, §3

[11] = test system: E. coli 50579417; assay type: cell-based, Escherichia coli
Procedure: as §1, §2, §3

[12] = test system: E. coli 50639799; assay type: cell-based, Escherichia coli
Procedure: as §1, §2, §3

[13] = test system: E. coli 50676002; assay type: cell-based, Escherichia coli
Procedure: as §1, §2, §3

[14] = test system: E. coli 50739822; assay type: cell-based, Escherichia coli
Procedure: as §1, §2, §3

[15] = test system: E. coli 50857972; assay type: cell-based, Escherichia coli
Procedure: as §1, §2, §3

[16] = test system: P. aeruginosa 50692520; assay type: cell-based, Pseudomonas aeruginosa
Procedure: as §1, §2, §3

[17] = test system: P. aeruginosa K34-7; assay type: cell-based, Pseudomonas aeruginosa
Procedure: as §1, §2, §3

[18] = test system: P. aeruginosa K44-24; assay type: cell-based, Pseudomonas aeruginosa
Procedure: as §1, §2, §3

[19] = Enterococcus faecium, read-out: Antimicrobial activity (MIC)
[20] = Escherichia coli, read-out: Antimicrobial activity (MIC)

## NCCCCN1C(=O)N(CCCCN)C(=O)C(Cc2cc(C(F)(F)F)cc(C(F)(F)F)c2)(Cc2cc(C(F)(F)F)cc(C(F)(F)F)c2)C1=O [7(vi)]
[1]; RBC EC50 / MIC
  selectivity index (EC50/MIC): (11)
[1]; Staphylococcus aureus, IHT99040, read-out: Antimicrobial activity (MIC)
  MIC: 16 µg/mL (≈ 22.1 µM)
[2]; RBC EC50 / MIC, S. aureus N315
  selectivity index (EC50/MIC): (11)
[2]; Staphylococcus aureus, N315, read-out: Antimicrobial activity (MIC)
  MIC: 16 µg/mL (≈ 22.1 µM)
[3]; RBC EC50 / MIC, S. aureus NCTC 10442
  selectivity index (EC50/MIC): (11)
[3]; Staphylococcus aureus, NCTC10442, read-out: Antimicrobial activity (MIC)
  MIC: 16 µg/mL (≈ 22.1 µM)
[4]; RBC EC50 / MIC, S. aureus strain 85/2082
  selectivity index (EC50/MIC): (11)
[4]; Staphylococcus aureus, 85/2082, read-out: Antimicrobial activity (MIC)
  MIC: 16 µg/mL (≈ 22.1 µM)
[5]; RBC EC50 / MIC, S. aureus strain WIS
  selectivity index (EC50/MIC): (11)
[5]; Staphylococcus aureus, read-out: Antimicrobial activity (MIC)
  MIC: 16 µg/mL (≈ 22.1 µM)
[6]; [19]
  MIC: 8 µg/mL (≈ 11.1 µM)
[6]; RBC EC50 / MIC
  selectivity index (EC50/MIC): (23)
[7]; [19]
  MIC: 16 µg/mL (≈ 22.1 µM)
[7]; RBC EC50 / MIC
  selectivity index (EC50/MIC): (11)
[8]; [19]
  MIC: 8 µg/mL (≈ 11.1 µM)
[8]; RBC EC50 / MIC
  selectivity index (EC50/MIC): (23)
[9]; Enterococcus faecium, K3618, read-out: Antimicrobial activity (MIC)
  MIC: 16 µg/mL (≈ 22.1 µM)
[9]; RBC EC50 / MIC, E. faecium K36-18
  selectivity index (EC50/MIC): (11)
[10]; Enterococcus faecium, TUH5022, read-out: Antimicrobial activity (MIC)
  MIC: 8 µg/mL (≈ 11.1 µM)
[10]; RBC EC50 / MIC
  selectivity index (EC50/MIC): (23)
[11]; [20]
  MIC: 16 µg/mL (≈ 22.1 µM)
[11]; RBC EC50 / MIC
  selectivity index (EC50/MIC): (11)
[12]; [20]
  MIC: 16 µg/mL (≈ 22.1 µM)
[12]; RBC EC50 / MIC
  selectivity index (EC50/MIC): (11)
[13]; Escherichia coli, 50676002, read-out: Antimicrobial activity (MIC)
  MIC: 16 µg/mL (≈ 22.1 µM)
[13]; RBC EC50 / MIC, E. coli 50676002
  selectivity index (EC50/MIC): (11)
[14]; [20]
  MIC: 16 µg/mL (≈ 22.1 µM)
[14]; RBC EC50 / MIC
  selectivity index (EC50/MIC): (11)
[15]; [20]
  MIC: 8 µg/mL (≈ 11.1 µM)
[15]; RBC EC50 / MIC
  selectivity index (EC50/MIC): (23)
[16]; Pseudomonas aeruginosa, read-out: Antimicrobial activity (MIC)
  MIC: 32 µg/mL (≈ 44.3 µM)
[16]; RBC EC50 / MIC
  selectivity index (EC50/MIC): (6)
[17]; Pseudomonas aeruginosa, K347, read-out: Antimicrobial activity (MIC)
  MIC: 32 µg/mL (≈ 44.3 µM)
[17]; RBC EC50 / MIC, P. aeruginosa K34-7
  selectivity index (EC50/MIC): (6)
[18]; Pseudomonas aeruginosa, K4424, read-out: Antimicrobial activity (MIC)
  MIC: 32 µg/mL (≈ 44.3 µM)
[18]; RBC EC50 / MIC
  selectivity index (EC50/MIC): (6)
